Measured values taken from patent US20210128414A1, “SELF-ASSEMBLED NANOSTRUCTURES AND COMPOSITE MATERIALS USABLE IN DENTAL APPLICATIONS CONTAINING SAME” (Ramot at Tel-Aviv University Ltd., priority 2018, published 2021).
Values belong to the compound of their own block, whether it stands above or below them.

Assays:
HeLa cells = assay: MTT cell viability analysis of composite restoratives; assay type: cell-based; settings: nanostructure-incorporated composite versus composite alone; 18 hours, 37° C.
Protocol: (§1) The effect of the incorporation of Fmoc-F5-Phe on the cytotoxicity of the dental composite restoratives was tested. This was carried out by evaluating the effect of each amalgamated composite restorative (containing self-assembled nanostructures as described herein) on the viability of two cell lines; HeLa and 3T3 fibroblasts, using MTT analysis, as follows.
(§2) The 3T3 fibroblast cells and HeLa cells grown in Dulbecco's Modified Eagle's Medium (DMEM) supplemented with 10% fetal calf serum (FBS) (Biological Industries, Israel) were sub-cultured (2×10^5 cells/mL) in 96-well tissue microplates (100 μl per well) and were allowed to adhere overnight at 37° C. Inserts (in quadruplet) coated on one side with each of the nano-assembly incorporated resin composite restoratives were placed into the wells containing the adhered cells. After incubation for 18 hours at 37° C., cell viability was evaluated using the 3-(4,5-dimethylthiazolyl-2)-2,5-diphenyltetrazolium bromide (MTT) assay. Briefly, 10 μL of 5 mg/mL MTT dissolved in PBS was added to each well. After 4 hours incubation at 37° C., 100 μl of the extraction buffer [20% SDS dissolved in a solution of 50% dimethylformamide and 50% DDW (pH 4.7)] were added to each well, and the plates were incubated again at 37° C. for 30 minutes. Finally, color intensity was measured using an ELISA reader at 570 nm. […]

3T3 fibroblasts = assay: as above; assay type: cell-based; settings: nanostructure-incorporated composite versus composite alone; 18 hours, 37° C.
Protocol: as §1, §2

[1] = Shear-Punch Strength Test of nanostructure-incorporated resin composite restorative; assay type: physicochemical
Protocol: The effect of the incorporation of peptide nanostructures in the polymerized dental resin composite restorative on the structural integrity of the resin composite restorative was tested. A Shear-Punch Test was carried out on samples incorporating varying weight ratios of Fmoc-Pentafluoro-Phe.
A Shear-Punch Strength Test was performed according to Mount et al., Aust. Dent. 1996; J 41: 116-23. Shear Punch Strength Test. Briefly, a composition comprising the nanostructures dispersed in a pre-polymerized resin composite restorative was placed in 0.8 mm thick wash holders and light-cured to form flat parallel surfaces evenly supported and restrained by the holder. The samples were then placed in an Instron device (model 4502) for punching under a crosshead speed of 0.5 mm per minute. The maximum force applied (Fmax) was calculated as the mean of 10 different samples for each w/w % concentration of the tested nanostructure. Statistical analysis was carried out via one-way analysis of variance and Dunnett's post hoc test.

[2] = Occlusal fissure stability and optical property analyses; assay type: physicochemical; settings: 2% w/w composite
Protocol: Occlusal Fissure Stability and Optical Property Analyses were also performed as follows.
Occlusal fissures were made via a diamond bur and then restored utilizing either the 2% nanostructure-containing restorative composites or a control (0%) restorative. The samples were contained for 30 days at 37° C. in sterile PBS. A Spectroshade Micro-MHT dental spectrophotometer normalized to the Vita classical color guide was then utilized to evaluate the color of the tested samples.

[3] = Diametral Tensile Strength (DTS) test; assay type: physicochemical; settings: 2% w/w nanostructures in Filtek composite; p>0.155
Protocol: Diametral Tensile Strength (DTS) Test was further performed to verify the difference in tensile properties (tensile strength and stiffness of the specimens characterizing the elasticity of the materials) of the 2% amalgamated material compared to the control (0%), as follows.
Disks (6 mm in diameter, 3 mm in height) of either control resin composite restorative or 2% nanoassembly-incorporated resin composite restorative were prepared in a Teflon mold similar to the specimens used for the punch shear strength. Specimens were loaded up to failure. The linear slope during loading was calculated, indicating the stiffness of the specimen, and the DTS was calculated by: […]
where P is the load at failure (N), D is the specimen diameter (mm), and t is the specimen height (mm).
The specimens were loaded via the above-mentioned loading machine using the same crosshead speed. Statistical analysis was carried out via T-test.

S. mutans [4] = assay: Bacterial morphology by high-resolution scanning electron microscopy; assay type: cell-based, Streptococcus mutans; settings: overnight treatment with nanostructures
Protocol: The effect of Fmoc-F5-Phe nanostructures on bacterial morphology was studied using High-Resolution Scanning Electron Microscopy as follows.
Bacterial samples were centrifuged at 5000 rpm for 5 minutes, washed thrice in PBS, and fixed in 2.5% glutaraldehyde in PBS for 1 hour. The samples were then washed thrice in PBS and fixed in 1% OsO4 in PBS for 1 hour, followed by a dehydration series with ethanol. The samples were then left in absolute ethanol for 30 minutes and placed onto glass coverslips, followed by critical point drying and coating with gold. Micrographs were recorded using a JEOL JSM-6700F FE-SEM scanning electron microscope operating at 10 kV. The obtained micrographs shown in FIG. 1I are representative of three independent experiments.

S. mutans [5] = assay: Direct-contact kinetic analysis (direct-contact test) of polymerized composite materials; assay type: cell-based, Streptococcus mutans; settings: 1 hour direct contact
Protocol: In order to evaluate the antimicrobial capabilities of the resin composite restoratives while simulating its clinical use, a direct-contact test (DCT) was carried out. This spectroscopic microplate reader based test, designed for compounds that are non-diffusible and non-soluble in water, allows measuring the effect of direct contact between the evaluated material and bacterial viability and growth. Four different W/W % samples of the resin composite material were evaluated at 0.25, 0.5, 1 and 2% Fmoc-F5-Phe nano-structure concentrations, and Filtek™ Ultimate Flow with no Fmoc-F5-Phe nano-structures additives, treated in the same manner, served as a control. Streptococcus mutans (S. mutans) was chosen for this evaluation as this strain is commonly found in the human oral cavity and is a significant caries-causing pathogen. Following direct contact of S. mutans bacteria with the Fmoc-F5-Phe incorporated materials the subsequent proliferation of the bacteria, was evaluated by optical density measurements over eighteen hours.
This analysis was carried out as described in Weiss et al. Endod. Dent. Traumatol. 12, 179-84 (1996), with slight modification.
S. mutans bacteria were grown in anaerobic conditions in BHI media for 48 hours and then diluted to an OD600 of 0.6 in BHI. […] were deposited onto inserts (concaved plastic surfaces designed to be suspended in the wells of 96 well-plates) coated on one side with each of the nano-assembly incorporated resin composite restoratives (four different W/W % samples of the resin composite material were evaluated at 0.25, 0.5, 1 and 2% concentrations of each nanostructure) and then incubated for one hour at 37° C. Following incubation […] was added to each well so that the inserts were submerged in the BHI and the plates were sealed to ensure anaerobic conditions. Kinetic growth inhibition was determined by optical density measurements (650 nm) using a Biotek Synergy HT microplate reader.

S. mutans [6] = assay: Live/Dead viability analysis after contact with composite restoratives; assay type: cell-based, Streptococcus mutans
Protocol: To directly assess bacterial viability, treated and control bacteria were subjected to Live/Dead viability analysis, using the Live/Dead backlight bacterial viability kit and accompanying instructions, as follows. S. mutans bacteria were grown in anaerobic conditions in BHI media for 48 hours and then diluted to an OD600 of 0.6 in BHI. 100 μl of these samples were deposited onto inserts coated on one side with each of the polymeric matrices and then incubated for one hour at 37 degrees. Following incubation […] was added to each well and the plates were sealed to ensure anaerobic conditions. At each time point (initial incubation, 1 hour and 24 hours) samples were taken and washed with saline, incubated for 15 minutes in a solution containing Propidium iodide and Syto9 (L13152 LIVE/DEAD® BacLight™ Bacterial Viability Kit, Molecular Probes, OR, USA) and washed with saline again. Fluorescence emission was detected using an ECLIPSE E600 (Nikon, Japan).

S. mutans [7] = assay: SYTOX Blue membrane permeation assay; assay type: cell-based, Streptococcus mutans; settings: nanostructures, 3 hours incubation at 37° C.
Protocol: The effect of Fmoc-F5-Phe nanostructures on bacterial membrane permeation was also supported by a SYTOX Blue membrane permeation assay. SYTOX Blue is a cationic dye that cannot enter an intact cell unless its membrane is disrupted by external compounds. Inside the cell, SYTOX Blue stain binds to intracellular nucleic acids and fluoresces bright blue when excited with 405 nm violet laser light.
S. mutans bacteria were grown under anaerobic conditions in BHI medium (BD Difco) for 48 hours and diluted to 0.1 OD600. Fmoc-F5-Phe or ultrapure water (100 μL) as control was added to 300 μL of bacteria and incubated for 3 hours in 37° C. The bacterial cells were centrifuged for 5 minutes at 3700 rpm and incubated with 1 μM SYTOX blue (Thermo Fisher Scientific) for 30 minutes at 37° C. The samples were washed three times in PBS and examined by confocal microscopy LSM 510, excited at 405 nm (Zeiss, Germany).

[8] = HPLC-based nanostructures release evaluation in sterile saliva; assay type: physicochemical; settings: 37° C., 2% w/w composite
Protocol: Restorative composites incorporating 4 mg of the Fmoc-F5-Phe nanostructures to a final w/w % of 2% were examined following 24, 48 and 72 hours of incubation at 37° C. in sterile saliva.

S. mutans [9] = assay: Minimum inhibitory concentration and kinetic growth inhibition analysis of nanostructures; assay type: cell-based, Streptococcus mutans
Protocol: The antibacterial capabilities of the obtained nanostructures were evaluated against S. mutans via a minimum inhibitory concentration (MIC) analysis and by kinetic growth inhibition analysis, as follows. S. mutans bacteria were grown under anaerobic conditions in brain heart infusion (BHI) medium (BD Difco) for 48 hours and then diluted to OD600 of 0.01 or 0.25 in BHI. Nanostructures samples, at an initial concentration of 8 mM, were added to the bacterial samples in 96-well plates in serial 2-fold dilutions, which were sealed to ensure anaerobic conditions. Kinetic growth inhibition was determined by optical density measurements (650 nm) using a Biotek Synergy HT microplate reader. The minimum inhibitory concentration (MIC) was determined using the microdilution assay, and evaluation of the reduction in colony-forming units was obtained by plating and counting bacterial samples before and after overnight treatment. […] The ability of the nanostructures to inhibit bacterial growth at a higher bacterial load, similar to that of an active infection was also tested. S. mutans cultures were grown until mid-log phase and were then treated with 2 mM samples of the nanostructures.

S. mutans [10] = assay: Live/Dead (Syto9/Propidium iodide) bacterial viability analysis of nanostructure-treated bacteria; assay type: cell-based, Streptococcus mutans; settings: after kinetic analysis with nanostructures
Protocol: To directly assess bacterial viability, the bacteria were subjected to Live/Dead viability analysis containing Syto9 (indicating live bacteria) and Propidium iodide (PI) (indicating dead bacteria). Following kinetic analysis, the samples were washed thrice with saline, incubated for 15 minutes in a solution containing Syto9 and Propidium iodide (L13152 LIVE/DEAD BacLight Bacterial Viability Kit, Molecular Probes, OR), and washed with saline again. Fluorescence emission was detected using an ECLIPSE E600 fluorescent microscope (Nikon, Japan).

[11] = 0.25-1% w/w nanostructures in Filtek composite
[12] = 2% w/w nanostructures in Filtek composite

Fmax versus control (0%) ([1]; 0.25%, 0.5% and 1% w/w nanostructures in Filtek composite, p≥0.144): no statistically significant difference
Fmax, inferior to control (0%) by ([1]; 2% w/w nanostructures in Filtek composite, p=0.011): 9%
effect on stiffness of the specimen ([1]; nanostructures in Filtek composite, data not shown): no substantial effect
stability of occlusal fissure restorations ([2]; 30-day incubation at 37° C. in sterile PBS): remained intact and stable
color (Vita shade) versus control ([2]; Spectroshade Micro-MHT spectrophotometer): same Vita shade
diametral tensile strength and stiffness versus control (0%) [3]: No statistically significant differences
amount of nanostructures released ([8]; 24 hours, 4 mg nanostructures): 0.9520 micrograms
released fraction of initial amount of incorporated nanostructures ([8]; 24 hours): less than 0.024%
amount of nanostructures released ([8]; 48 hours): 0.1805 micrograms
released fraction of incorporated nanostructures ([8]; 48 hours): below 0.0046%
amount of nanostructures released ([8]; 72 hours): 0.1088 micrograms
concentration at which overnight incubation completely inhibited bacterial growth (MIC analysis) (S. mutans [9]; self-assembled nanostructures, cultures started at early log phase, overnight): 2000 µM
SMILES: O=C(NC(Cc1c(F)c(F)c(F)c(F)c1F)C(=O)O)OCC1c2ccccc2-c2ccccc21 (stereo not drawn) [Fmoc-F5-Phe, Fmoc-Pentafluorophenylalanline]
effect of incorporation on cell viability (MTT) (HeLa cells): did not change the effect
effect of incorporation on cell viability (MTT) (3T3 fibroblasts): did not change the effect
effect on bacterial morphology (S. mutans [4]): membrane fusing, clumping, and disintegration were abundant
bacterial growth inhibition (S. mutans [5]; [11]): partially inhibit bacterial growth in a dose dependent manner
bacterial growth inhibition (S. mutans [5]; [12]): over 95%
bacterial viability (Live/Dead) (S. mutans [6]; [12]): bacterial cell death
bacterial viability (Live/Dead), persistence of effect (S. mutans [6]; composite with nanostructures, 24 hours): persisted
bacterial viability (Live/Dead) (S. mutans [6]; composite with nanostructures, one hour of treatment, versus Filtek alone): large scale bacterial death
bacteria stained with SYTOX Blue (membrane permeation) (S. mutans [7]): about 90%
bacterial growth inhibition at higher bacterial load (S. mutans [9]; 2 mM nanostructures added to mid-log phase cultures): inhibited bacterial proliferation
reduction in colony-forming units (S. mutans [9]; nanostructures at 2 mM, overnight, early log phase cultures): 7.2 log(10) CFU/mL
bacterial growth inhibition at lower concentrations (S. mutans [9]; nanostructures below 2 mM, overnight): partially inhibiting growth in a dose-dependent manner
bacterial viability (Live/Dead) (S. mutans [10]): significant bacterial cell death

SMILES: O=C(N[C@@H](Cc1ccccc1)C(=O)O)OCC1c2ccccc2-c2ccccc21 [Fmoc-Phe, Fmoc-phenylalanine]
bacterial growth inhibition (S. mutans [5]; [11]): inhibited growth in a dose-dependent manner
bacterial growth inhibition (S. mutans [5]; [12]): 60%
